Measurements taken from ChEMBL document CHEMBL1201862, “PubChem BioAssay data set” (2004).
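In this assay, cells in 96-well plates receive the compound at five concentrations for 48 hours. Endpoints are linearly interpolated between the surrounding concentrations. Abbreviation: GI50, concentration required for 50% inhibition of growth.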 Activity calls are given as the source filed them. Cut-off read from the data, not from the text of the source: active = GI50 up to about 1.1 µM and inactive = higher.

Key:
Assay in all cases: DTP human tumour cell line panel, 48 h
NCI-H460 = tested on: NCI-H460
KM12 = tested on: KM12
HOP-62 = tested on: HOP-62
SF-268 = tested on: SF-268
EKVX = tested on: EKVX
A549 = tested on: A549
Malme-3M = tested on: Malme-3M
SW-620 = tested on: SW-620
IGROV-1 = tested on: IGROV-1
PC-3 = tested on: PC-3
Hs-578T = tested on: Hs-578T
K562 = tested on: K562
MOLT-4 = tested on: MOLT-4
SN12C = tested on: SN12C
RXF 393 = tested on: RXF 393
HCC 2998 = tested on: HCC 2998
HCT-116 = tested on: HCT-116
MDA-MB-231 = tested on: MDA-MB-231
SF-539 = tested on: SF-539
NCI-H23 = tested on: NCI-H23

Row | SMILES | GI50 (NCI-H460) | GI50 (KM12) | GI50 (HOP-62) | GI50 (SF-268) | GI50 (EKVX) | GI50 (A549) | GI50 (Malme-3M) | GI50 (SW-620) | GI50 (IGROV-1) | GI50 (PC-3) | GI50 (Hs-578T) | GI50 (K562) | GI50 (MOLT-4) | GI50 (SN12C) | GI50 (RXF 393) | GI50 (HCC 2998) | GI50 (HCT-116) | GI50 (MDA-MB-231) | GI50 (SF-539) | GI50 (NCI-H23)
1 | Cc1cc2c(=Cc3ccc(N(C)C)cc3)c3ccccc3n2[n+]1C | 0.393 µM (active) | 0.385 µM (active) | 0.656 µM (active) | 0.537 µM (active) | 1.02 µM (active) | 0.632 µM (active) | 1.08 µM (active) | 1.21 µM (inactive) | 1.52 µM (inactive) | 0.44 µM (active) | 0.628 µM (active) | 0.227 µM (active) | 0.282 µM (active) | 0.304 µM (active) | 2.09 µM (inactive) | 0.256 µM (active) | 0.365 µM (active) | 0.847 µM (active) | 0.641 µM (active) | 0.497 µM (active)
2 | CCN(CC)CCNc1nc(N)c(C#N)c(C#N)c1C#N | > 10 µM (inactive) | > 10 µM (inactive) | > 10 µM (inactive) | > 10 µM (inactive) | > 10 µM (inactive) | > 10 µM (inactive) | > 10 µM (inactive) | > 10 µM (inactive) | > 10 µM (inactive) | > 10 µM (inactive) | > 10 µM (inactive) | > 10 µM (inactive) | > 10 µM (inactive) | > 10 µM (inactive) | > 10 µM (inactive) | > 10 µM (inactive) | > 10 µM (inactive) | > 10 µM (inactive) | > 10 µM (inactive) | > 10 µM (inactive)
3 | Cc1cc(/N=C/c2ccc(Cl)cc2)n(-c2ccccc2)n1 | 43.1 µM (inactive) | 23.4 µM (inactive) | 36 µM (inactive) | 69.3 µM (inactive) | 33 µM (inactive) | 45.3 µM (inactive) | 49.3 µM (inactive) | 39.2 µM (inactive) | 45.7 µM (inactive) | 53.8 µM (inactive) | 58.7 µM (inactive) | 12.9 µM (inactive) | 32.2 µM (inactive) | 39.4 µM (inactive) | 22.9 µM (inactive) | 24.9 µM (inactive) | 26.2 µM (inactive) | > 100 µM (inactive) | > 100 µM (inactive) | 42 µM (inactive)
4 | Clc1nc(Cl)c(Cc2ccccc2)c(Cl)n1 | > 10 µM (inactive) | 7.87 µM (inactive) | 6.17 µM (inactive) | 18.6 µM (inactive) | 19 µM (inactive) | 12.5 µM (inactive) | 5.35 µM (inactive) | 3.09 µM (inactive) | 5.97 µM (inactive) | 3.7 µM (inactive) | 2.66 µM (inactive) | 3.08 µM (inactive) | 2.98 µM (inactive) | 4.39 µM (inactive) | 4.21 µM (inactive) | 13.7 µM (inactive) | 1.91 µM (inactive) | 3.75 µM (inactive) | 5.3 µM (inactive) | 8.32 µM (inactive)
5 | CCSC1=CC(=O)c2nc3ccccc3c3ccnc1c23 | 6.24 µM (inactive) | 3.9 µM (inactive) | 18.4 µM (inactive) | 2.49 µM (inactive) | 2.58 µM (inactive) | 7.8 µM (inactive) | 1.67 µM (inactive) | 2.68 µM (inactive) | 2.72 µM (inactive) | 2.17 µM (inactive) | 3.14 µM (inactive) | 1.35 µM (inactive) | 2.64 µM (inactive) | 2.64 µM (inactive) | 4.5 µM (inactive) | 8.89 µM (inactive) | 2.72 µM (inactive) | 4.14 µM (inactive) | 5.43 µM (inactive) | 2.64 µM (inactive)
6 | CCSCCCCC(c1ccc(O)cc1)C(C)(CC)c1ccc(O)cc1 (stereo not given) | 30.1 µM (inactive) | 21.6 µM (inactive) | 53.7 µM (inactive) | 20.3 µM (inactive) | 29.6 µM (inactive) | 25.4 µM (inactive) | 20.3 µM (inactive) | 21.4 µM (inactive) | 16.9 µM (inactive) | 20.3 µM (inactive) | 23.6 µM (inactive) | 42.1 µM (inactive) | 32.1 µM (inactive) | 33.1 µM (inactive) | 6.92 µM (inactive) | 15.3 µM (inactive) | 17.9 µM (inactive) | 21.7 µM (inactive) | 20 µM (inactive) | 19.6 µM (inactive)
7 | CC(=O)O[C@H]1C[C@H]2[C@@H]([C@H](OC(C)=O)C[C@@H]3CC4(CC[C@@]32C)OOC2(CCCCC2)OO4)[C@@H]2CC[C@H]([C@H](C)CCC(N)=O)[C@@]12C | 1.93 µM (inactive) | 1.71 µM (inactive) | 0.817 µM (active) | 1.66 µM (inactive) | 1.49 µM (inactive) | 1.19 µM (inactive) | 2.76 µM (inactive) | 2.42 µM (inactive) | 0.134 µM (active) | 1.62 µM (inactive) | 5.47 µM (inactive) | 2.05 µM (inactive) | 0.881 µM (active) | 2.14 µM (inactive) | 2.76 µM (inactive) | 3.63 µM (inactive) | 3.13 µM (inactive) | 1.95 µM (inactive) | 3.13 µM (inactive) | 1 µM (active)
8 | COc1ccc(C2(c3ccc(OC)cc3)OC(=O)c3cccc4cccc2c34)cc1 | 4.69 µM (inactive) | 3.85 µM (inactive) | 6.98 µM (inactive) | > 100 µM (inactive) | 2.76 µM (inactive) | 8.11 µM (inactive) | 5.37 µM (inactive) | 5.18 µM (inactive) | 5.93 µM (inactive) | 2.16 µM (inactive) | 9.51 µM (inactive) | 3.36 µM (inactive) | 4.58 µM (inactive) | 23.8 µM (inactive) | 15.9 µM (inactive) | 3.14 µM (inactive) | 3.71 µM (inactive) | > 100 µM (inactive) | 3.48 µM (inactive) | 12.6 µM (inactive)
9 | C=C1C(=O)O[C@@H]2C[C@@]3(C)CCC[C@H](C)C3=C[C@H]12 [HELENINE] | 17 µM (inactive) | 12 µM (inactive) | 12.3 µM (inactive) | 12.6 µM (inactive) | 15 µM (inactive) | 16.1 µM (inactive) | 3.95 µM (inactive) | 3.83 µM (inactive) | 16.1 µM (inactive) | 11.6 µM (inactive) | 4.99 µM (inactive) | 3.02 µM (inactive) | 1.62 µM (inactive) | 3.01 µM (inactive) | 6.12 µM (inactive) | 15.7 µM (inactive) | 4.45 µM (inactive) | 14.2 µM (inactive) | 10.6 µM (inactive) | 4.94 µM (inactive)
